# Results taken from patent publication US20240317754A1 (priority 2020, published 2024).
# Where two headings read alike, the source gives them in different places.
# Legend:
# [1] = test system: SARS-CoV-2 variant B.1.351; assay: microbe, parasite or virus in culture; assay type: cell-based
# [2] = test system: SARS-CoV-2 variant B.1.617.2; assay: microbe, parasite or virus in culture; assay type: cell-based
# [3] = test system: SARS-CoV-2 B.1.617.2 variants; settings: in vivo
# SARS-CoV-2 variants = assay: microbe, parasite or virus in culture; assay type: cell-based
# [4] = Severe acute respiratory syndrome coronavirus 2, Vero C1008, 48 h
SMILES,"IC50 [1, 4]","IC50 [2, 4]",other results
"CC(C)C(=O)OC[C@H]1O[C@@](C#N)(c2ccc3c(N)ncnn23)[C@H](O)[C@@H]1O [ATV006, ((2R,3S,4R,5R)-5-(4-aminopyrrolo[2,1-f][1,2,4]triazin-7-yl)-5-cyano-3,4-dihydroxytetrahydrofuran-2-yl)methyl isobutyrate]",1.13 µM,0.349 µM,amount of viral genome (N gene) in lung tissue [3]: significantly lower than that in the control group; amount of viral subgenome (subgenomic N) in lung tissue [3]: significantly lower than that in the control group
"CCCC(=O)OC[C@H]1O[C@@](C#N)(c2ccc3c(N)ncnn23)[C@H](O)[C@@H]1O [ATV009, ((2R,3S,4R,5R)-5-(4-aminopyrrolo[2,1-f][1,2,4]triazin-7-yl)-5-cyano-3,4-dihydroxytetrahydrofuran-2-yl)methyl butyrate]",1.38 µM,0.492 µM,–
"CCCCCCCCC(=O)OC[C@H]1O[C@@](C#N)(c2ccc3c(N)ncnn23)[C@H](O)[C@@H]1O [ATV010, ((2R,3S,4R,5R)-5-(4-aminopyrrolo[2,1-f][1,2,4]triazin-7-yl)-5-cyano-3,4-dihydroxytetrahydrofuran-2-yl)methyl nonanoate]",1 µM,0.455 µM,–
"CCC(CC)C(=O)OC[C@H]1O[C@@](C#N)(c2ccc3c(N)ncnn23)[C@H](O)[C@@H]1O [ATV011, ((2R,3S,4R,5R)-5-(4-aminopyrrolo[2,1-f][1,2,4]triazin-7-yl)-5-cyano-3,4-dihydroxytetrahydrofuran-2-yl)methyl 2-ethylbutanoate]",2.3 µM,0.408 µM,–
"N#C[C@@]1(c2ccc3c(N)ncnn23)O[C@H](COC(=O)c2ccccc2)[C@@H](O)[C@H]1O [ATV013, ((2R,3S,4R,5R)-5-(4-aminopyrrolo[2,1-f][1,2,4]triazin-7-yl)-5-cyano-3,4-dihydroxytetrahydrofuran-2-yl)methyl benzoate]",2.43 µM,0.965 µM,–
"N#C[C@@]1(c2ccc3c(N)ncnn23)O[C@H](COC(=O)C2CCCCC2)[C@@H](O)[C@H]1O [ATV014, ((2R,3S,4R,5R)-5-(4-aminopyrrolo[2,1-f][1,2,4]triazin-7-yl)-5-cyano-3,4-dihydroxytetrahydrofuran-2-yl)methyl cyclohexanecarboxylate]",–,–,"IC50 [1]: 0.248 µM; IC50 [2]: 0.21 µM; IC50 (SARS-CoV-2 variants; Severe acute respiratory syndrome coronavirus 2): < 0.34 µM; anti-SARS-CoV-2 activity relative to GS-441524 (SARS-CoV-2 variants; summary statement, in words): twice that of GS-441524"
"CC(C)CC(=O)OC[C@H]1O[C@@](C#N)(c2ccc3c(N)ncnn23)[C@H](O)[C@@H]1O [ATV017, ((2R,3S,4R,5R)-5-(4-aminopyrrolo[2,1-f][1,2,4]triazin-7-yl)-5-cyano-3,4-dihydroxytetrahydrofuran-2-yl)methyl 3-methylbutanoate]",2.85 µM,0.428 µM,–
"CC(C)(C)C(=O)OC[C@H]1O[C@@](C#N)(c2ccc3c(N)ncnn23)[C@H](O)[C@@H]1O [ATV018, ((2R,3S,4R,5R)-5-(4-aminopyrrolo[2,1-f][1,2,4]triazin-7-yl)-5-cyano-3,4-dihydroxytetrahydrofuran-2-yl)methyl pivalate]",0.785 µM,0.229 µM,–
"N#C[C@@]1(c2ccc3c(N)ncnn23)O[C@H](CO)[C@@H](O)[C@H]1O [GS-441524, reference compound]",–,–,IC50 [1]: 1.78 µM; IC50 [2]: 1.65 µM
